A word on the Ki: it is a dissociation constant, usually derived from enzyme kinetics or from competition with a known ligand. A word on the Km: it is the substrate concentration at which the rate is half of its maximum. Usually IC50 stands for the concentration at which inhibition is half-maximal.

In test [1] the target is T1, N. fowleri Nfa-1 hemerythrin (Naegleria fowleri, UniProt Q9NH76).
T1 construct: made in house; host or cells: E. coli
The test can be described thus: biochemical. From the text:
(§1) The N. fowleri Nfa-1 gene (360 bp, GenBank Accession No. AF230370) was amplified by PCR from genomic N. fowleri DNA using PCR primers that included the Nde1 and Sap1 restriction enzyme sites for subsequent cloning into the Nde1 and Sap1 sites of the bacterial expression vector pTwin1 (forward primer with Nde1 site underlined; ATG start codon is indicated in bold: SEQ ID NO: 1 5′-[…]-3′, reverse primer with Sap1 site underlined: SEQ ID NO: 2 5′-[…]-3′), which contained a thiol-inducible intein protease fused to a chitin-binding domain. Recombinant Nfa-1 protein was produced in E. coli and purified by chitin-agarose chromatography followed by cleavage and elution of the purified Nfa-1 protein by 40 mM dithiothreitol (DTT) and subsequent size-exclusion chromatography purification.
(§2) Enzymatic oxidase activity, kinetics and pharmacological drug inhibition assays of recombinant N. fowleri Nfa-1 hemerythrin were determined in vitro using NADH or NADPH as the substrate and electron donor and ferricyanide as electron acceptor. Various drugs and inhibitors specific for xanthine oxidase-like enzymes, NAD(P)H oxidases, or NADH peroxidase were included in the pharmacological inhibition assays.

Test [2] has as its target T1, N. fowleri Nfa-1 hemerythrin. The test can be described thus: Initial-rate enzyme kinetics of Nfa-1 hemerythrin using NADH or NADPH as substrates. Type of test: biochemical. Conditions: substrate 10-200 μM, ferricyanide 200 μM, 40 sec at 23° C., Michaelis-Menten analysis; for Km: read-out: apparent Km.
From the text: as §1, §2
Enzyme kinetics were determined using NADH or NADPH at 10-200 μM concentration as electron donor and ferricyanide (200 μM) as electron acceptor for initial-rate enzyme kinetics of 40 sec at 23° C.

Test [3] concerns Naegleria fowleri strain Nf69 (ATCC 30215). Briefly: LDH cytotoxicity assay of N. fowleri amoebae co-cultured with CHO cells. As to conditions: ATCC30215, CHO, 13 h, read-out: IC50, protection from N. fowleri cytotoxicity. As for the experimental part:
Naegleria fowleri strain Nf69 (ATCC 30215) was cultivated at about 33° C. in modified Nelson's medium (about 1 mM Na2HPO4, about 1 mM KH2PO4, about 2.05 mM NaCl, about 16.2 μM MgSO4, about 27.2 μM CaCl2), about 0.17 g/L DIFCO Liver infusion broth, about 9.4 mM glucose) supplemented with about 10% heat-inactivated fetal bovine serum. For cytotoxicity assays, Chinese hamster ovary (CHO) cells were grown at about 37° C. in DMEM medium supplemented with about 10% fetal bovine serum until cultures reached about 70-80% confluency. Subsequently cultures were infected with N. fowleri cells at a ratio of 1 N. fowleri amoeba per 5-10 CHO cells and co-cultivated overnight for about 13 hours at about 37° C. The cytotoxicity effect of N. fowleri amoebae on CHO cells was measured by an LDH-based cytotoxicity assay that quantifies the release of lactate dehydrogenase (LDH) from dead cells at 490 nm wavelength absorbance for calculation of amoeba-induced cytotoxicity to the mammalian host cells.
Cytotoxicity of Naegleria fowleri amoebae was measured with CHO cells co-cultured with N. fowleri for about 13 hours at about 37° C. using the LDH cytotoxicity assay (infection ratio of 1 amoeba cell per 5-10 CHO cells) as described above.

Test [4] relates to Acanthamoeba castellani (ATCC strain 50370). The test can be described thus: microbe, parasite or virus in culture. Conditions: Acanthamoeba castellanii, ATCC50370, CHO, 19 h, read-out: IC50, protection against A. castellani cytotoxicity.
The mark [5] stands for this setting: recombinant N. fowleri Nfa-1 oxidase in vitro, read-out: Ki, inhibition of Nfa-1 enzyme activity.

Read-outs that look alike come from different tables or passages of the source.

T1 sequence (Q9NH76 whole entry): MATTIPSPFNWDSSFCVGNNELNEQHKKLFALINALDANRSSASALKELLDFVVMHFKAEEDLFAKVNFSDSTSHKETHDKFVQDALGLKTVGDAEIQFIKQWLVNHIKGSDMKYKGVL

As to `O=[N+]([O-])[O-].[Ag+]` [AgNO3], in test [1] (setting [5]), the inhibitory constant (Ki) turned out to be 345 µM.

Turning to `NC(=O)C1=CN([C@@H]2O[C@H](COP(=O)(O)OP(=O)(O)OC[C@H]3O[C@@H](n4cnc5c(N)ncnc54)[C@H](OP(=O)(O)O)[C@@H]3O)[C@@H](O)[C@H]2O)C=CC1` [NADPH], in test [2], the apparent kat amounted to 3.3 s⁻¹ and the Km turned out to be 22.3 µM.

`c1ccc2c(c1)[I+]c1ccccc1-2` [DPI, diphenyleneiodonium chloride]: the Ki in test [1] stood at 19 µM. Besides, the 50% inhibitory concentration (IC50) in test [3] was found to be 49 µM.

Turning to `NC(=O)C1=CN([C@@H]2O[C@H](COP(=O)(O)OP(=O)(O)OC[C@H]3O[C@@H](n4cnc5c(N)ncnc54)[C@H](O)[C@@H]3O)[C@@H](O)[C@H]2O)C=CC1` [NADH], in test [2], the apparent kat stood at 4.4 s⁻¹ and the Michaelis-Menten constant (Km) stood at 64.5 µM.

Turning to `OO` [Formula H2O2, H2O2], the “stimulation of Nfa-1 enzyme activity” value in test [1] (NADH peroxidase activator, FIG. 9) is recorded as 9.7%.

Regarding `Oc1ncnc2[nH]ncc12` [Allopurinol], in test [1] (setting [5]), the Ki amounted to 134 µM. The IC50 in test [3] came to 48 µM; in test [4] it was 620 µM.

Take `COc1cc(C(C)=O)ccc1O` [Apocynin]: in test [1] (setting [5]), the inhibition constant Ki is 17 µM. Further, the half-maximal inhibitory concentration (IC50) was determined as 15 µM in test [3] and 174 µM in test [4].

Regarding `O=C(O)c1cc[c]([Hg][OH])cc1` [pHMB, para-hydroxymercuribenzoate], the Ki in test [1] stood at 78 µM.

The compound `O=c1[nH]cnc2nc[nH]c12` [hypoxanthine] had an inhibition constant Ki in test [1] of 1000 µM. The IC50 in test [3] came out at 497 µM.

Values taken from US10668027B1, “Method of treating Acanthamoeba infection using allopurinol” (University of South Florida, priority 2014, dated 2020).
